Source: the NIST ThermoML archive (doi:10.1021/je900105g)
Where “and” joins values, the source holds several entries; their conditions need not be identical. Equal entries are not always repeated. ± gives the expanded uncertainty stated by the source.

Conditions: Liquid, Buoyancy - hydrostatic balance with magnetic suspension - one sinker

Question: With Cc1ccccc1 [toluene] as the compound, how does the mass density (293.14 K, 580 kPa) read?
Answer: The mass density was 867.3 ± 0.12 kg/m3.

Question: And the mass density (293.14 K, 2080 kPa)?
Answer: Its mass density is 868.44 ± 0.12 kg/m3.

Question: And the mass density (293.14 K, 2100 kPa)?
Answer: Its mass density is 868.49 ± 0.12 kg/m3.

Question: And the mass density (293.14 K, 4080 kPa)?
Answer: Its mass density is 869.92 ± 0.12 kg/m3.

Question: What about the mass density (293.14 K, 6080 kPa) of the same compound?
Answer: The mass density was 871.41 ± 0.12 kg/m3.

Question: What about the mass density (293.14 K, 8080 kPa) of the same compound?
Answer: Its mass density is 872.84 ± 0.12 kg/m3.

Question: And the mass density (293.14 K, 10080 kPa)?
Answer: Its mass density is 874.27 ± 0.12 kg/m3.

Question: What about the mass density (293.14 K, 10110 kPa) of the same compound?
Answer: The mass density was 874.35 ± 0.12 kg/m3.

Question: And the mass density (293.14 K, 15090 kPa)?
Answer: The mass density was 877.74 ± 0.12 kg/m3.

Question: And the mass density (293.14 K, 15110 kPa)?
Answer: Its mass density is 877.83 ± 0.12 kg/m3.

Question: And the mass density (293.14 K, 20090 kPa)?
Answer: Its mass density is 881.09 ± 0.12 kg/m3.

Question: And the mass density (293.14 K, 20110 kPa)?
Answer: Its mass density is 881.18 ± 0.12 kg/m3.

Question: What about the mass density (293.14 K, 25090 kPa) of the same compound?
Answer: Its mass density is 884.33 ± 0.12 kg/m3.

Question: What about the mass density (293.14 K, 25120 kPa) of the same compound?
Answer: Its mass density is 884.42 ± 0.12 kg/m3.

Question: What about the mass density (293.14 K, 30090 kPa) of the same compound?
Answer: The mass density was 887.47 ± 0.12 kg/m3.

Question: What about the mass density (293.14 K, 30120 kPa) of the same compound?
Answer: The mass density was 887.56 ± 0.12 kg/m3.

Question: What about the mass density (293.15 K, 2080 kPa) of the same compound?
Answer: Its mass density is 868.48 ± 0.12 kg/m3.

Question: And the mass density (293.15 K, 4080 kPa)?
Answer: Its mass density is 869.98 ± 0.12 kg/m3.

Question: What about the mass density (293.15 K, 6080 kPa) of the same compound?
Answer: The mass density was 871.45 ± 0.12 kg/m3.

Question: What about the mass density (293.15 K, 8080 kPa) of the same compound?
Answer: Its mass density is 872.9 ± 0.12 kg/m3.

Question: And the mass density (293.15 K, 10080 kPa)?
Answer: The mass density was 874.33 ± 0.12 kg/m3.

Question: And the mass density (293.15 K, 15080 kPa)?
Answer: The mass density was 877.8 ± 0.12 kg/m3.

Question: What about the mass density (293.15 K, 20080 kPa) of the same compound?
Answer: Its mass density is 881.15 ± 0.12 kg/m3.

Question: And the mass density (293.15 K, 25080 kPa)?
Answer: Its mass density is 884.39 ± 0.12 kg/m3.

Question: And the mass density (313.14 K, 590 kPa)?
Answer: The mass density was 848.73 ± 0.12 kg/m3.

Question: What about the mass density (313.14 K, 2090 kPa) of the same compound?
Answer: The mass density was 850.02 ± 0.12 kg/m3.

Question: And the mass density (313.14 K, 4090 kPa)?
Answer: Its mass density is 851.7 ± 0.12 kg/m3.

Question: And the mass density (313.14 K, 6090 kPa)?
Answer: Its mass density is 853.35 ± 0.12 kg/m3.

Question: And the mass density (313.14 K, 8090 kPa)?
Answer: The mass density was 854.98 ± 0.12 kg/m3.

Question: And the mass density (313.14 K, 10090 kPa)?
Answer: The mass density was 856.57 ± 0.12 kg/m3.

Question: What about the mass density (313.14 K, 15090 kPa) of the same compound?
Answer: Its mass density is 860.44 ± 0.12 kg/m3.

Question: What about the mass density (313.14 K, 20090 kPa) of the same compound?
Answer: The mass density was 864.16 ± 0.12 kg/m3.

Question: What about the mass density (313.14 K, 25090 kPa) of the same compound?
Answer: Its mass density is 867.74 ± 0.12 kg/m3.

Question: And the mass density (333.14 K, 590 kPa)?
Answer: The mass density was 829.86 ± 0.12 kg/m3.

Question: What about the mass density (333.14 K, 2090 kPa) of the same compound?
Answer: Its mass density is 831.32 ± 0.12 kg/m3.

Question: What about the mass density (333.14 K, 4090 kPa) of the same compound?
Answer: The mass density was 833.23 ± 0.12 kg/m3.

Question: And the mass density (333.14 K, 6090 kPa)?
Answer: The mass density was 835.1 ± 0.12 kg/m3.

Question: What about the mass density (333.14 K, 8090 kPa) of the same compound?
Answer: Its mass density is 836.93 ± 0.12 kg/m3.

Question: What about the mass density (333.14 K, 10090 kPa) of the same compound?
Answer: Its mass density is 838.73 ± 0.12 kg/m3.

Question: What about the mass density (333.14 K, 15090 kPa) of the same compound?
Answer: The mass density was 843.06 ± 0.12 kg/m3.

Question: What about the mass density (333.14 K, 20090 kPa) of the same compound?
Answer: The mass density was 847.2 ± 0.12 kg/m3.

Question: What about the mass density (333.14 K, 25090 kPa) of the same compound?
Answer: The mass density was 851.15 ± 0.12 kg/m3.

Question: What about the mass density (333.14 K, 30090 kPa) of the same compound?
Answer: The mass density was 854.96 ± 0.12 kg/m3.

Question: What about the mass density (353.14 K, 2090 kPa) of the same compound?
Answer: Its mass density is 812.26 ± 0.11 kg/m3.

Question: What about the mass density (353.14 K, 4090 kPa) of the same compound?
Answer: The mass density was 814.44 ± 0.11 kg/m3.

Question: And the mass density (353.14 K, 6090 kPa)?
Answer: The mass density was 816.57 ± 0.11 kg/m3.

Question: What about the mass density (353.14 K, 8090 kPa) of the same compound?
Answer: Its mass density is 818.63 ± 0.11 kg/m3.

Question: What about the mass density (353.14 K, 10090 kPa) of the same compound?
Answer: Its mass density is 820.66 ± 0.11 kg/m3.

Question: And the mass density (353.14 K, 15090 kPa)?
Answer: Its mass density is 825.54 ± 0.11 kg/m3.

Question: What about the mass density (353.14 K, 20090 kPa) of the same compound?
Answer: Its mass density is 830.16 ± 0.12 kg/m3.

Question: What about the mass density (353.14 K, 25090 kPa) of the same compound?
Answer: Its mass density is 834.54 ± 0.12 kg/m3.

Question: And the mass density (353.14 K, 30090 kPa)?
Answer: Its mass density is 838.72 ± 0.12 kg/m3.

Question: And the mass density (373.15 K, 590 kPa)?
Answer: Its mass density is 790.76 ± 0.11 kg/m3.

Question: And the mass density (373.15 K, 2090 kPa)?
Answer: The mass density was 792.7 ± 0.11 kg/m3 and 792.76 ± 0.11 kg/m3.

Question: And the mass density (373.15 K, 4090 kPa)?
Answer: Its mass density is 795.21 ± 0.11 kg/m3 and 795.27 ± 0.11 kg/m3.

Question: And the mass density (373.15 K, 6090 kPa)?
Answer: The mass density was 797.64 ± 0.11 kg/m3 and 797.7 ± 0.11 kg/m3.

Question: And the mass density (373.15 K, 8090 kPa)?
Answer: Its mass density is 800 ± 0.11 kg/m3 and 800.07 ± 0.11 kg/m3.

Question: What about the mass density (373.15 K, 10090 kPa) of the same compound?
Answer: The mass density was 802.3 ± 0.11 kg/m3 and 802.37 ± 0.11 kg/m3.

Question: What about the mass density (373.15 K, 15080 kPa) of the same compound?
Answer: The mass density was 807.86 ± 0.11 kg/m3.

Question: And the mass density (373.15 K, 15090 kPa)?
Answer: Its mass density is 807.78 ± 0.11 kg/m3.

Question: And the mass density (373.15 K, 20080 kPa)?
Answer: The mass density was 813.03 ± 0.11 kg/m3.

Question: What about the mass density (373.15 K, 25080 kPa) of the same compound?
Answer: Its mass density is 817.91 ± 0.11 kg/m3.

Question: And the mass density (373.15 K, 30080 kPa)?
Answer: The mass density was 822.54 ± 0.11 kg/m3.

Question: What about the mass density (373.49 K, 2100 kPa) of the same compound?
Answer: Its mass density is 792.38 ± 0.11 kg/m3.

Question: What about the mass density (373.49 K, 10110 kPa) of the same compound?
Answer: The mass density was 802.04 ± 0.11 kg/m3.

Question: And the mass density (373.49 K, 15110 kPa)?
Answer: Its mass density is 807.56 ± 0.11 kg/m3.

Question: What about the mass density (373.49 K, 20120 kPa) of the same compound?
Answer: Its mass density is 812.74 ± 0.11 kg/m3.

Question: What about the mass density (373.49 K, 25120 kPa) of the same compound?
Answer: The mass density was 817.63 ± 0.11 kg/m3.

Question: And the mass density (373.49 K, 30120 kPa)?
Answer: Its mass density is 822.28 ± 0.11 kg/m3.
